Measurements published in patent US5416073A, “Growth hormone-releasing peptides and method of treating animals, therewith” (The Adminstrators of the Tulane Educational Fund, priority 1985, dated 1995).

Columns and labels:
dairy cows = experiment: Effect on milk production in dairy cows, treatments administered subcutaneously; type: in vivo; conditions: for Milk Production: 10-day treatment period, mean, saline control 22.2; for % increase over control: milk production, vs saline control
Description: In this test, treatments are administered using a Latin Square design using four cows. Each treatment period is 10 days, and the interval between treatments is 4 days.
There is a pre-treatment period of one week, at the end of which each cow receives an indwelling jugular catheter. Catheters are flushed daily with heparinized (500-1000 IU/ml) sterile saline to help maintain potency and are replaced as needed.
The drugs are solubilized in sterile saline and injected subcutaneously each day with the dosage based on the cow's weight. Dosages range from 0.06 mg/kg animal/day to 60 mg/kg animal/day, preferably 0.10 mg/kg animal/day to 50 mg/kg/day.
On the first and last treatment days of each period, blood is collected at 15 minute intervals for 1 hour prior to and 11/2 hours after treatment; sampling continues at 30 minutes intervals for an additional 31/2 hours.
Milk samples are obtained on the evening proceeding each bleeding day, the morning of each bleeding day and combined (50% each).
Feed intake, refusals and milk production is monitored for all animals.
Results obtained are reported as mean milk production in kg/day for each treatment and compared against a saline control.

Growth Hormone Release = experiment: Peptide effects on growth hormone release, plasma GH by RIA in anesthetized male rats; type: in vivo, rat; conditions: 15 min
Description: In this evaluation, the procedures described by W. A. Murphy et al., Endocrinology 109:491-495 (1980), were employed.
In growth hormone (GH) experiments, male rats (Charles Rivers) were anesthetized with NEMBUTAL® (6 mg per 100 g body weight) which also served to maintain stimulated plasma GH levels. Exactly 30 minutes after the rats were anesthetized, 0.5 mL of saline or the test peptide in saline was administered as a SC bolus. A 1 mL blood sample was drawn from the jugular vein 15 minutes after the injection of the peptide in saline. GH levels were determined using NIADDKD rat GH RIA components.

Row | SMILES | Milk Production (dairy cows; 0.4 mg/kg/day SC) | Milk Production (dairy cows; 0.8 mg/kg/day SC) | % increase over control (dairy cows; 0.4 mg/kg/day SC) | % increase over control (dairy cows; 0.8 mg/kg/day SC) | Plasma GH (Growth Hormone Release; dose 0.08 μg/100 g BW SC, saline 454 ± 62) | Plasma GH (Growth Hormone Release; dose 0.20 μg/100 g BW SC, saline 454 ± 62) | Plasma GH (Growth Hormone Release; dose 0.50 μg/100 g BW SC, saline 454 ± 62) | Plasma GH (Growth Hormone Release; dose 0.05 ug/100 g BW SC, saline 203 ± 39) | Plasma GH (Growth Hormone Release; dose 0.5 ug/100 g BW SC, saline 203 ± 39)
1 | CC[C@H](C)[C@H](NC(=O)[C@H](C)NC(=O)[C@H](CC(=O)O)NC(=O)[C@@H](C)NC(=O)[C@@H](N)Cc1ccc(O)cc1)C(=O)N[C@@H](Cc1ccccc1)C(=O)N[C@H](C(=O)N[C@@H](CC(N)=O)C(=O)N[C@@H](CO)C(=O)N[C@@H](Cc1ccc(O)cc1)C(=O)N[C@@H](CCCNC(=N)N)C(=O)N[C@@H](CCCCN)C(=O)N[C@H](C(=O)N[C@@H](CC(C)C)C(=O)NCC(=O)N[C@@H](CCC(N)=O)C(=O)N[C@@H](CC(C)C)C(=O)N[C@@H](CO)C(=O)N[C@@H](C)C(=O)N[C@@H](CCCNC(=N)N)C(=O)N[C@@H](CCCCN)C(=O)N[C@@H](CC(C)C)C(=O)N[C@@H](CC(C)C)C(=O)N[C@@H](CCC(N)=O)C(=O)N[C@@H](CC(=O)O)C(=O)N[C@H](C(=O)N[C@@H](CCSC)C(=O)N[C@@H](CO)C(=O)N[C@@H](CCCNC(=N)N)C(N)=O)[C@@H](C)CC)C(C)C)[C@@H](C)O [[D-Ala^2]-hpGRF(1-29)-NH2, D-alanine^2-human Pancreatic Growth Hormone-Releasing(1-29)-amide] | 23.9 kg/day | 23.8 kg/day | +7.6% | +7.2% | 1118 ± 158 ng/mL | 2122 ± 350 ng/mL | 3539 ± 109 ng/mL |  | 
2 | CCCC[C@H](NC(=O)[C@@H](NC(=O)[C@H](CC(=O)O)NC(=O)[C@H](CCC(N)=O)NC(=O)[C@H](CC(C)C)NC(=O)[C@H](CC(C)C)NC(=O)[C@H](CCCCN)NC(=O)[C@H](CCCNC(=N)N)NC(=O)[C@H](C)NC(=O)[C@H](CO)NC(=O)[C@H](CC(C)C)NC(=O)[C@H](CCC(N)=O)NC(=O)CNC(=O)[C@H](CC(C)C)NC(=O)[C@@H](NC(=O)[C@H](CCCCN)NC(=O)[C@H](CCCNC(=N)N)NC(=O)[C@H](Cc1ccc(O)cc1)NC(=O)[C@H](CO)NC(=O)[C@@H](CC(N)=O)NC(=O)[C@@H](NC(=O)[C@H](Cc1ccccc1)NC(=O)[C@@H](NC(=O)[C@H](C)NC(=O)[C@H](CC(=O)O)NC(=O)[C@@H](C)NC(=O)[C@@H](N)Cc1ccc(O)cc1)[C@@H](C)CC)[C@@H](C)O)C(C)C)[C@@H](C)CC)C(=O)N[C@@H](CO)C(=O)N[C@@H](CCCNC(=N)N)C(N)=O [D-Ala^2 -D-Asn^8 -Nle^27, D-alanine^2, D-asparagine^8, Norleucine^27-human Pancreatic Growth Hormone-Releasing(1-29)-amide] |  |  |  |  |  |  |  | 407 ± 53 ng/mL | 1613 ± 138 ng/mL
